# “And” between values parts separate entries of the source, which are not always exact repeats. Equal values may be shown once. Read-outs that look alike come from different tables or passages of the source.
# Tests used:
# [1] = Pharmacokinetics (plasma and brain levels) in ICR (CD-1) mice; type: in vivo; conditions: i.v. 1 mg/kg, 1 mg/kg
# Description: ICR (CD-1) male mice were fasted at least three horns and water was available ad libitum before the study. Animals were housed in a controlled environment, target conditions: temperature 18 to 29° C., relative humidity 30 to 70%. Temperature and relative humidity was monitored daily. An electronic time controlled lighting system was used to provide a 12 h light/12 h dark cycle. 3 mice for each indicated time point. ICR (CD-1) mice were administered CA77 at 1 mg/kg i.v. and 30 mg/kg p.o. or CA77.1 at 1 mg/kg i.v. (FIG. 2A) and 10 mg/kg p.o. (FIG. 2B). Three (3) mice were included in each dosage and time group. Mice were sacrificed and plasma and brains were obtained at 0.083, 0.25, 0.50, 1.0, 2.0, 4.0, 8.0, and 24.0 hours after administration and drug concentration determined using LC-MS/MS. Brains were removed, homogenized with a tissue homogenizer in cold 5% w/v BSA in phosphate buffer saline (PBS). A 100 microliter aliquots of brain samples were dispensed in to glass culture tubes and mixed with ethyl acetate (800 μl), vortexed, and centrifuged. The organic layer was transferred to a fresh culture tube, dried under nitrogen, and reconstituted in mobile phase for quantitation. Pharmacokinetic parameters were determined by standard methods using Phoenix WinNonlin 6.3 software.
# Tables 3A and 3B provide the concentrations of CA77 in ICR (CD-1) mouse plasma (3A) and mouse brain (3B) following i.v. administration of 1 mg/kg CA77. Table 3C provides the brain/plasma ratio of CA77 following i.v. administration of 1 mg/kg CA77. Shaded cells indicate data not included in statistics due to aberrant value. BLQ=Below Limit of Quantitation.
# Tables 5A and 5B provide the concentrations of CA77.1 in ICR (CD-1) mouse plasma (5A) and mouse brain (5B) following i.v. administration of 1 mg/kg CA77.1. Table 5C provides the brain/plasma ratio of CA77.1 following i.v. administration of 1 mg/kg CA77.1. The plasma and brain pharmacokinetic parameters for CA77.1 are provided in Table 6. *—cells contain data not present in the statistics.
# [2] = tested on: chaperone-mediated autophagy (CMA) in NIH 3T3 fibroblasts; experiment: Photoswitchable KFERQ-Dendra CMA reporter assay in NIH 3T3 fibroblasts; type: cell-based
# Description: The photoactivatable CMA reporter assay was constructed by inserting a sequence of 21 amino acid of Ribonuclease A bearing the CMA-targeting motif in the N-terminus multicloning site of the photoactivatable protein mCherryl or the photoswitchable protein Dendra 2.
# NIH 3T3 fibroblasts were stably transduced with a photoconvertible CMA reporter, KFERQ-Dendra. were photoswitched by exposure to a […] (constant current) LED (Norlux, 405 nm) for 10 minutes and at the desired times fixed in 3% formaldehyde. Test cells were exposed to the indicated concentrations of the compounds for 12 hours (FIG. 3A) or 24 hours (FIG. 3B). Cells were imaged using high content microscopy (Operetta, Perkin Elmer) or by capturing images with an Axiovert 200 fluorescence microscope (Zeiss) with apotome and equipped with a 63/1.4 NA oil objective lens and red (ex. 570/30 nm, em. 615/30 nm), cyan (ex. 365/50 nm and em. 530/45 nm) and green (ex. 475/40 nm and em. 535/45 nm) filter sets (Chroma). Images were acquired with a high-resolution CCD camera after optical sectioning through the apotome. CMA activity measured as the average number of fluorescent puncta (CMA active lysosomes) per cell. Values are expressed relative to values in untreated cells that were assigned an arbitrary value of 1 and are mean of >2,500 cells counted per condition. The S.D. in all instances was <0.01% mean value. Table 2 provides a comparison of compounds CA39.1 and its comparative example CA39 and CA77.01 and its comparative example CA77.
structure (smiles),measurement,setting,value
"CC(=O)Nc1ccc(C2=Nc3ccc(Cl)cc3OC2)cc1 [CA77, reference compound]","Conc. in brain, individual animal","[1]; mouse brain, 0.083 h",2943 ng/g and *693 ng/g
same,"Conc. in brain, individual animal","[1]; mouse brain, 0.25 h",3391 ng/g and 5173 ng/g and 2397 ng/g
same,"Conc. in brain, individual animal","[1]; mouse brain, 0.50 h",2795 ng/g and 2950 ng/g
same,"Conc. in brain, individual animal","[1]; mouse brain, 1.00 h",2651 ng/g and 2154 ng/g
same,"Conc. in brain, individual animal","[1]; mouse brain, 2.00 h",411 ng/g and 792 ng/g
same,"Conc. in brain, individual animal","[1]; mouse brain, 4.00 h",112 ng/g and 124 ng/g
same,"Conc. in brain, individual animal","[1]; mouse brain, 8.00 h",7.74 ng/g and 27.5 ng/g and 41.4 ng/g
same,"Conc. in brain, individual animal","[1]; mouse brain, 24.0 h",2.68 ng/g and 4.25 ng/g and 2.07 ng/g
same,"Conc. in plasma, individual animal","[1]; mouse plasma, 0.083 h",41.4 ng/mL and *14 ng/mL
same,"Conc. in plasma, individual animal","[1]; mouse plasma, 0.25 h",27.2 ng/mL and 43.9 ng/mL and 19.5 ng/mL
same,"Conc. in plasma, individual animal","[1]; mouse plasma, 0.50 h",14.6 ng/mL and 21.9 ng/mL
same,"Conc. in plasma, individual animal","[1]; mouse plasma, 1.00 h",21.5 ng/mL and 15.3 ng/mL
same,"Conc. in plasma, individual animal","[1]; mouse plasma, 2.00 h",7.54 ng/mL and 1.71 ng/mL and 3.84 ng/mL
same,"Conc. in plasma, individual animal","[1]; mouse plasma, 4.00 h",BLQ and 0.533 ng/mL
same,"Brain/Plasma ratio, individual animal","[1]; mouse, 0.083 h",71.1 and *48.9
same,"Brain/Plasma ratio, individual animal","[1]; mouse, 0.25 h",118 and 123
same,"Brain/Plasma ratio, individual animal","[1]; mouse, 0.50 h",192 and 135
same,"Brain/Plasma ratio, individual animal","[1]; mouse, 1.00 h",123 and 141
same,"Brain/Plasma ratio, individual animal","[1]; mouse, 2.00 h",102 and 240 and 206
same,"Brain/Plasma ratio, individual animal","[1]; mouse, 4.00 h",232
same,concentration at 0.083 h,"[1]; male, ICR (CD-1), mouse, brain, iv, mouse brain, 0.083 h, read-out: Conc. in brain, Mean",3360 ng/g
same,concentration at 0.083 h,"[1]; male, ICR (CD-1), mouse, brain, iv, mouse brain, 0.083 h, read-out: Conc. in brain, individual animal",3770 ng/g
same,concentration at 0.25 h,"[1]; male, ICR (CD-1), mouse, brain, iv, mouse brain, 0.25 h, read-out: Conc. in brain, Mean",3650 ng/g
same,concentration at 0.5 h,"[1]; male, ICR (CD-1), mouse, brain, iv, mouse brain, 0.50 h, read-out: Conc. in brain, Mean",2650 ng/g
same,concentration at 0.5 h,"[1]; male, ICR (CD-1), mouse, brain, iv, mouse brain, 0.50 h, read-out: Conc. in brain, individual animal",2200 ng/g
same,concentration at 1 h,"[1]; male, ICR (CD-1), mouse, brain, iv, mouse brain, 1.00 h, read-out: Conc. in brain, Mean",2460 ng/g
same,concentration at 1 h,"[1]; male, ICR (CD-1), mouse, brain, iv, mouse brain, 1.00 h, read-out: Conc. in brain, individual animal",2760 ng/g
same,concentration at 2 h,"[1]; male, ICR (CD-1), mouse, brain, iv, mouse brain, 2.00 h, read-out: Conc. in brain, Mean",659 ng/g
same,concentration at 2 h,"[1]; male, ICR (CD-1), mouse, brain, iv, mouse brain, 2.00 h, read-out: Conc. in brain, individual animal",773 ng/g
same,concentration at 4 h,"[1]; male, ICR (CD-1), mouse, brain, iv, mouse brain, 4.00 h, read-out: Conc. in brain, Mean",104 ng/g
same,concentration at 4 h,"[1]; male, ICR (CD-1), mouse, brain, iv, mouse brain, 4.00 h, read-out: Conc. in brain, individual animal",76 ng/g
same,concentration at 8 h,"[1]; male, ICR (CD-1), mouse, brain, iv, mouse brain, 8.00 h, read-out: Conc. in brain, Mean",25.6 ng/g
same,concentration at 24 h,"[1]; male, ICR (CD-1), mouse, brain, iv, mouse brain, 24.0 h, read-out: Conc. in brain, Mean",3 ng/g
same,Kp at 0.083 h,"[1]; male, ICR (CD-1), mouse, brain/plasma, iv, mouse, 0.083 h, read-out: Brain/Plasma ratio, Mean",71.2
same,Kp at 0.083 h,"[1]; male, ICR (CD-1), mouse, brain/plasma, iv, mouse, 0.083 h, read-out: Brain/Plasma ratio, individual animal",71.3
same,Kp at 0.25 h,"[1]; male, ICR (CD-1), mouse, brain/plasma, iv, mouse, 0.25 h, read-out: Brain/Plasma ratio, Mean",122
same,Kp at 0.25 h,"[1]; male, ICR (CD-1), mouse, brain/plasma, iv, mouse, 0.25 h, read-out: Brain/Plasma ratio, individual animal",125
same,Kp at 0.5 h,"[1]; male, ICR (CD-1), mouse, brain/plasma, iv, mouse, 0.50 h, read-out: Brain/Plasma ratio, Mean",151
same,Kp at 0.5 h,"[1]; male, ICR (CD-1), mouse, brain/plasma, iv, mouse, 0.50 h, read-out: Brain/Plasma ratio, individual animal",128
same,Kp at 1 h,"[1]; male, ICR (CD-1), mouse, brain/plasma, iv, mouse, 1.00 h, read-out: Brain/Plasma ratio, Mean",159
same,Kp at 1 h,"[1]; male, ICR (CD-1), mouse, brain/plasma, iv, mouse, 1.00 h, read-out: Brain/Plasma ratio, individual animal",178
same,Kp at 2 h,"[1]; male, ICR (CD-1), mouse, brain/plasma, iv, mouse, 2.00 h, read-out: Brain/Plasma ratio, Mean",183
same,Kp at 4 h,"[1]; male, ICR (CD-1), mouse, brain/plasma, iv, mouse, 4.00 h, read-out: Brain/Plasma ratio, Mean",210
same,Kp at 4 h,"[1]; male, ICR (CD-1), mouse, brain/plasma, iv, mouse, 4.00 h, read-out: Brain/Plasma ratio, individual animal",188
same,concentration at 0.083 h,"[1]; male, ICR (CD-1), mouse, plasma, iv, mouse plasma, 0.083 h, read-out: Conc. in plasma, Mean",47.1 ng/mL
same,concentration at 0.083 h,"[1]; male, ICR (CD-1), mouse, plasma, iv, mouse plasma, 0.083 h, read-out: Conc. in plasma, individual animal",52.9 ng/mL
same,concentration at 0.25 h,"[1]; male, ICR (CD-1), mouse, plasma, iv, mouse plasma, 0.25 h, read-out: Conc. in plasma, Mean",30.2 ng/mL
same,concentration at 0.5 h,"[1]; male, ICR (CD-1), mouse, plasma, iv, mouse plasma, 0.50 h, read-out: Conc. in plasma, Mean",17.9 ng/mL
same,concentration at 0.5 h,"[1]; male, ICR (CD-1), mouse, plasma, iv, mouse plasma, 0.50 h, read-out: Conc. in plasma, individual animal",17.2 ng/mL
same,concentration at 1 h,"[1]; male, ICR (CD-1), mouse, plasma, iv, mouse plasma, 1.00 h, read-out: Conc. in plasma, Mean",15.4 ng/mL
same,concentration at 1 h,"[1]; male, ICR (CD-1), mouse, plasma, iv, mouse plasma, 1.00 h, read-out: Conc. in plasma, individual animal",15.5 ng/mL
same,concentration at 2 h,"[1]; male, ICR (CD-1), mouse, plasma, iv, mouse plasma, 2.00 h, read-out: Conc. in plasma, Mean",4.37 ng/mL
same,concentration at 4 h,"[1]; male, ICR (CD-1), mouse, plasma, iv, mouse plasma, 4.00 h, read-out: Conc. in plasma, Mean",0.565 ng/mL
same,concentration at 4 h,"[1]; male, ICR (CD-1), mouse, plasma, iv, mouse plasma, 4.00 h, read-out: Conc. in plasma, individual animal",0.597 ng/mL
same,"CMA activity (fluorescent puncta per cell, relative to untreated cells = 1)",[2]; Time 5,2.667
same,"CMA activity (fluorescent puncta per cell, relative to untreated cells = 1)",[2]; Time 10,3.331
same,"CMA activity (fluorescent puncta per cell, relative to untreated cells = 1)",[2]; Time 20,5.005
same,"CMA activity (fluorescent puncta per cell, relative to untreated cells = 1)",[2]; Time 30,5.471
